Laboratory results reported in the supplement of paper PMC10290057.
“And” between values parts separate entries of the source, which are not always exact repeats. Equal values may be shown once. Where a name gives a salt, the structure may show the parent alone.

Test system: HCT116
Test: efficacy (fitted maximal change in viability relative to DMSO control); higher = less cytotoxic (negative = loss of viability)
Conditions: 48 h
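Also: Luminescence-based viability readout, five doses per compound, normalized against on-plate DMSO and empty-well controls, followed by dose-response curve fitting for every drug.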

Structure (SMILES)	efficacy
CC(C)C[C@@H]1NC(=O)[C@@H](C(C)C)NC(=O)[C@@H]2CCCN2C(=O)[C@@H](CC(=O)O)NC(=O)[C@@H](Cc2c[nH]c3ccccc23)NC1=O [BQ-123]	-9.37%
C[N]1N=C(C)C2=C1OC(=C(/C#N)C2C3=CC=C(C=C3)C(F)(F)F)/N (stereo unspecified) [BQU-57]	-30.8%
CC(C)c1cnn2c(NCc3ccccc3)cc(NCCCCCCN)nc12 [BS-181]	-106%
Cc1c(Cl)cccc1[S+](=O)([O-])Nc1nc(CCN2CCOCC2=O)cs1 [BVT-3498]	-14.1%
O=C(NCCCNc1nc(Nc2cccc(NC(=O)N3CCCC3)c2)ncc1I)c1cccs1 [BX-795]	-76.5%
CCC(C)C(N)\C1=N\C(CS1)C(=O)N[C@@H](CC(C)C)C(=O)N[C@H](CCC(O)=O)C(=O)N[C@@H]([C@@H](C)CC)C(=O)N[C@H]2CCCCNC(=O)[C@H](CC(N)=O)NC(=O)[C@@H](CC(O)=O)NC(=O)[C@H](CC3=CN=C[NH]3)NC(=O)[C@@H](CC4=CC=CC=C4)NC(=O)[C@@H](NC(=O)[C@@H](CCCN)NC2=O)[C@@H](C)CC (stereo partly specified) [Bacitracin (Zinc)]	-26.9%
OC1=CC2=C(C(=O)\C=C(/O2)C3=CC=CC=C3)C(=C1O)O [Baicalein]	-14.7%
CNC1CCCN(C1)C2=C(F)C=C3C(=O)\C(=C/N(C4CC4)C3=C2OC)C(O)=O (stereo unspecified) [Balofloxacin]	-10.2%
O=C(O)CCNC(=O)c1ccc(/N=N/c2ccc(O)c(C(=O)O)c2)cc1 [Balsalazide disodium]	-11.7%
Cc1onc(-c2ccc(F)cc2)c1COc1ccc(C(=O)N2CC[S+](=O)([O-])CC2)cn1 [Basmisanil]	-18.7%
CNC(=O)[C@H](Cc1ccccc1)NC(=O)[C@H](CC(C)C)[C@H](CSc1cccs1)C(=O)NO [Batimastat]	-46.2%
CCOC(=O)[C@H](CCc1ccccc1)N[C@H]1CCc2ccccc2N(CC(=O)O)C1=O [Benazepril]	-8.42%
Cl.NC(CO)C(=O)NNCc1ccc(O)c(O)c1O (stereo unspecified) [Benserazide]	-65.3%
CCCCC(=O)O[C@@]1([C@@H](C)C[C@H]2[C@@H]3CCC/4=C/C(=O)/C=C\[C@]4(C)[C@@]3(F)[C@@H](O)C[C@]12C)C(=O)CO [Betamethasone valerate]	-7.12%
CC(C)NCC(O)COc1ccc(CCOCC2CC2)cc1 (stereo unspecified) [Betaxolol]	-9.42%
CC(C[N+](C)(C)C)OC(N)=O (stereo unspecified) [Bethanechol chloride]	-25.8%
C=C(C)[C@@H]1CC[C@]2(C(=O)O)CC[C@]3(C)[C@H](CC[C@@H]4[C@@]5(C)CC[C@H](O)C(C)(C)[C@@H]5CC[C@]43C)[C@@H]12 [Betulinic acid]	14.5%
C=C(c1ccc(C(=O)O)cc1)c1cc2c(cc1C)C(C)(C)CCC2(C)C [Bexarotene]	-19.6%
CC(O)(C[S+](=O)([O-])c1ccc(F)cc1)C(=O)Nc1ccc(C#N)c(C(F)(F)F)c1 (stereo unspecified) [Bicalutamide]	-14.2%
CCNC(=O)CCC/C=C\C[C@@H]1[C@@H](/C=C/C(O)CCc2ccccc2)[C@@H](O)C[C@@H]1O (stereo partly specified) [Bimatoprost]	-24.4%
COC1=CC=C(C=C1)C/2=C/OC3=C(C(=CC(=C3)O)O)C2=O [Biochanin A]	-34.7%
N=C1S/C(=C\c2ccc(-c3ccc4c(c3)C(=O)NC4=O)o2)C(=O)N1c1ccc(Br)cc1 [Bioymifi]	-15.3%
OC(CCN1CCCCC1)(C2CC\3CC2\C=C3)C4=CC=CC=C4 (stereo unspecified) [Biperiden]	-34.7%
CC[C@H](NC(=O)[C@H](C)NC)C(=O)N1C[C@@H](O)C[C@H]1Cc1c(-c2[nH]c3cc(F)ccc3c2C[C@@H]2C[C@H](O)CN2C(=O)[C@H](CC)NC(=O)[C@H](C)NC)[nH]c2cc(F)ccc12 [Birinapant]	-49.9%

Structure (SMILES)	efficacy
CC/C(=C(/c1ccc(/C=C/C(=O)O)cc1)c1ccc2[nH]ncc2c1)c1ccc(F)cc1Cl [Brilanestrant]	-35.5%
CCCCCCCCCCCCCCCCOCCCO[P](O)(=O)COC(CO)CN1/C=C\C(=N/C1=O)N (stereo unspecified) [Brincidofovir]	-6.44%
CN(Cc1cc(Br)cc(Br)c1N)C1CCCCC1 [Bromhexine hydrochloride]	-27.2%
CCCCOc1ccc(CC(=O)NO)cc1 [Bufexamac]	-14.9%
COc1cc(OC)c(C(=O)CCCN2CCCC2)c(OC)c1 [Buflomedil hydrochloride]	-7.04%
CCCCNc1cc(C(=O)O)cc([S+](N)(=O)[O-])c1Oc1ccccc1 [Bumetanide]	-7.8%
C[S+](=O)([O-])OCCCCO[S+](C)(=O)[O-] [Busulfan]	-5.76%
C=C1C(=O)OC(CCCCCCCC)C1C(=O)O (stereo unspecified) [C75]	-6.41%
CC1=NN(c2ccc(C(=O)O)cc2)C(=O)/C1=C/c1ccc(-c2cc(C)c(C)cc2[N+](=O)[O-])o1 [C-646]	-21%
O=C(NCc1ccccc1)[C@H](Cc1ccccc1)NC(=O)[C@H]1O[C@@H]1C(=O)NCCc1ccc(O)cc1 [CAA-0225]	-24.8%
CN1\C=C(/N=C(NC2=CC=C(C=C2)C(=O)N3CCOCC3)\C1=O)C4=C(C)C(=CC=C4)NC(=O)C5=CC=C(C=C5)C(C)(C)C [CGI-1746]	-29.2%
Clc1ccc(-c2nc3sccn3c2/C=N/OCc2ccc(Cl)c(Cl)c2)cc1 [CITCO]	-19.4%
CC(C)C/1=C(NC2=C(C=N[N]2C1=O)C#N)\C3=CC=CC=C3 [CPI-455]	-11.2%
O=C(O)CCCCC(CCSCc1ccccc1)SCc1ccccc1 (stereo unspecified) [CPI-613]	-19.4%
CC(=O)Nc1ccc(C(=O)NC(C)(C)C)cc1 [CPI-1189]	-10.3%
COC/1=C(\CNC(=O)C2=C(C)[N]([C@H](C)C3CCN(CC3)CC(F)(F)F)C4=C2C=CC=C4)C(=O)N/C(=C1)C [CPI-1205]	-27.1%
CCC/1=C(/NC2=C(C=N[N]2C1=O)C#N)C3=CC=CC=C3C [CPI-4203]	17.2%
CN[C@@H](C)C(=O)N[C@H](C(=O)N1CCC[C@H]1C(=O)Nc1sc(-c2ncco2)nc1-c1ccccc1)C1CCCCC1 [CUDC-427]	-17%
CCCn1c(=O)c2[nH]c(-c3cnn(Cc4cccc(C(F)(F)F)c4)c3)nc2n(CC)c1=O [CVT-6883]	-14.4%
Cc1nc(C)c(CN2CCN(C(c3ccc(F)cc3)c3ccc(F)cc3)CC2)nc1C [CXC-195]	-77.3%
C=C1/C(=C\C=C2/CCC[C@]3(C)[C@@H]([C@H](C)CCCC(C)(C)O)CC[C@@H]23)C[C@@H](O)C[C@@H]1O [Calcitriol]	-65% and -62.8%
N/C1=N/C(=O)C/2=C(NC[C@@H](CNC3=CC=C(C=C3)C(=O)N[C@@H](CCC([O-])=O)C([O-])=O)N2C=O)\N1 [Calcium folinate]	-9.49%
CCCC[C@@H](C=O)NC(=O)[C@H](CC(C)C)NC(=O)OCc1ccccc1 [Calpeptin]	-29.4%
CC[C@@]1(O)C(=O)OC\C2=C1\C=C\3N(CC4=C3N=C5C=CC=CC5=C4)C2=O [Camptothecin]	-65.5%

Structure (SMILES)	efficacy
CNC(=O)c1ccc(-c2cnc3ncc(Cc4ccc5ncccc5c4)n3n2)cc1F [Capmatinib]	-28.8%
COc1cc(CNC(=O)CCCC/C=C/C(C)C)ccc1O [Capsaicin]	-16.7%
COc1ccc(Nc2nccc(NCCO)n2)cc1 [Cardiogenol]	-11.7%
O=NN(CCCl)C(=O)NCCCl [Carmustine]	-15.1%
CCN(CC)CCN1C(=O)\C(=N/C2=CC=CC=C12)CC3=CC=C(OC)C=C3 [Caroverine]	-15.9%
CC(C)C[C@H](NC(=O)[C@H](Cc1ccccc1)NC(=O)OCc1ccccc1)C(=O)C=O [Cathepsin S Inhibitor]	-64.5%
CCN1CCN(C(=O)N[C@@H](C(=O)N[C@H]2[C@H]3SC\C(=C(/N3C2=O)C(O)=O)CSC4=NN=N[N]4C)C5=CC=C(O)C=C5)C(=O)C1=O [Cefoperazone (sodium salt)]	-15.8%
Cc1nnc(C(C)C)n1C1CC2CCC(C1)N2CCC(NC(=O)C1CCC(F)(F)CC1)c1ccccc1 (stereo unspecified) [Celsentri (Maraviroc)]	17%
CC[S+](=O)([O-])N1CCN(c2ccc(Nc3ncc(C(N)=O)c(NC4CC4)n3)cc2)CC1 [Cerdulatinib]	-88.9%
COc1ccc2c(c[n+](C)c3c4cc5c(cc4ccc23)OCO5)c1OC [Chelerythrine chloride]	-83.2%
C[C@H](CCC(=O)O)[C@H]1CC[C@H]2[C@@H]3[C@H](O)C[C@@H]4C[C@H](O)CC[C@]4(C)[C@H]3CC[C@]12C [Chenodeoxycholic acid]	-16%
CCN(CC)CCCC(C)Nc1ccnc2cc(Cl)ccc12 (stereo unspecified) [Chloroquine]	-24.3%
N[S+]([O-])(=O)C1=C(Cl)C=C2\N=C/N[S+]([O-])(=O)C2=C1 [Chlorothiazide]	-4.38%
Cc1cc(O)c2c(c1)C(=O)c1cccc(O)c1C2=O [Chrysophanol]	-8.65%
NC/1=N/C(=O)N(C[C@@H](CO)OC[P](O)(O)=O)/C=C1 [Cidofovir]	7.03%
CC(C)[C@H]1C(=O)N[C@@H](CCCN=C(N)N)C(=O)NCC(=O)N[C@@H](CC(=O)O)C(=O)N[C@H](Cc2ccccc2)C(=O)N1C [Cilengitide]	-11%
O=C1CCc2cc(OCCCCc3nnnn3C3CCCCC3)ccc2N1 [Cilostazol]	-26.7%
O=C(O)CCCCN(CCc1ccccc1OCc1ccc(CCc2ccccc2)cc1)Cc1ccc(C(=O)O)cc1 [Cinaciguat]	-11.7%
C=C[C@H]1CN2CCC1C[C@@H]2[C@@H](O)c1ccnc2ccccc12 (stereo partly specified) [Cinchonine dihydrochloride]	-36.1%
CC(C)(Oc1ccc(C2CC2(Cl)Cl)cc1)C(=O)O (stereo unspecified) [Ciprofibrate]	-6.71%
[NH2][Pt]([NH2])([Cl])[Cl] [Cisplatin]	-25%
CCC[C@@H]1C[C@@H](C(=O)N[C@@H]([C@H]2O[C@H](SC)[C@H](O)[C@@H](O)[C@H]2O)[C@H](C)Cl)N(C)C1 [Clindamycin HCl]	-14.1%
CCCCCCCCCCCCCCCC(=O)O[C@@H]1[C@@H](O)[C@@H](O)[C@@H]([C@H](NC(=O)[C@@H]2C[C@@H](CCC)CN2C)[C@H](C)Cl)O[C@@H]1SC.Cl [Clindamycin palmitate]	-24.9%
